US7118895B2, “Process for producing aglycon by using diglycosidase and flavor-improved food containing the aglycon and converting agent to be used in the process” (Amano Enzyme Inc., priority 2000, dated 2006)

Test system: Crude diglycosidase
Assay: Examination of substrate concentration in the conversion into isoflavone aglycons by diglycosidase using soybean materials;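 also: percent of the isoflavone family total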
Format: biochemical, Penicillium multicolor IAM7153
Settings: concentrated soybean protein
Procedure: Into 20 mM acetate buffer of pH 4.0 was suspended 0.1 g, 0.25 g, 0.5 g, 1.0 g, or 1.5 g of each of various soybean materials (roasted soy flour (manufactured by Fuji Shokuryo K.K.), soymilk (manufactured by Gitoh Shokuhin K.K.), defatted soybean (manufactured by Fuji Seiyu K.K.), concentrated soybean protein (manufactured by Fuji Seiyu K.K.)). The pH of the suspension was measured and the liquid volume was adjusted to 4.5 mL while the pH was adjusted to 4.0 with 1N hydrochloric acid. An enzyme solution wherein diglycosidase activity of crude diglycosidase was adjusted to 1.88 AU/mL was added thereto in an amount of 0.5 mL, whereby the final liquid volume was 5.0 mL. Namely, the ratio of the soybean material in the reaction mixture was 2%, 5%, 10%, 20%, or 30% (w/v). The whole was reacted at 55° C. under shaking. To 5 mL of the reaction mixture was added 7 mL of ethanol after 0, 1, 3, and 6 hours of the reaction. After ultrasonication, the mixture was thoroughly mixed. It was subjected to centrifugal separation at 2,000 rpm and room temperature for 5 minutes. Then, […] of the supernatant was placed in a 1.5 mL microtube and was subjected to centrifugal separation at 15,000 rpm and 4° C. for 10 minutes. The supernatant was filtered through a filter and each sample was suitably diluted by a factor of 1 to 6 depending on the substrate concentration. Fifty μL of the diluted solution was analyzed by HLPC (Tables 27 to 38).

Measured: Decomposition efficiency: ratio of each glycoside/aglycon within its isoflavone family

O=C(O)CC(=O)OC[C@H]1O[C@@H](Oc2ccc3c(=O)c(-c4ccc(O)cc4)coc3c2)[C@H](O)[C@@H](O)[C@@H]1O [malonydaidzin]
not detected: substrate concentration 2%, heat treatment of enzyme no, reaction time 0 h | substrate concentration 2%, heat treatment of enzyme no, reaction time 1 h | substrate concentration 2%, heat treatment of enzyme no, reaction time 3 h | substrate concentration 2%, heat treatment of enzyme no, reaction time 6 h | substrate concentration 2%, heat treatment of enzyme yes, reaction time 6 h | substrate concentration 5%, heat treatment of enzyme no, reaction time 0 h | substrate concentration 5%, heat treatment of enzyme no, reaction time 1 h | substrate concentration 5%, heat treatment of enzyme no, reaction time 3 h | substrate concentration 5%, heat treatment of enzyme no, reaction time 6 h | substrate concentration 5%, heat treatment of enzyme yes, reaction time 6 h | substrate concentration 10%, heat treatment of enzyme no, reaction time 0 h | substrate concentration 10%, heat treatment of enzyme no, reaction time 1 h | substrate concentration 10%, heat treatment of enzyme no, reaction time 3 h | substrate concentration 10%, heat treatment of enzyme no, reaction time 6 h | substrate concentration 10%, heat treatment of enzyme yes, reaction time 6 h | substrate concentration 20%, heat treatment of enzyme no, reaction time 0 h | substrate concentration 20%, heat treatment of enzyme no, reaction time 1 h | substrate concentration 20%, heat treatment of enzyme no, reaction time 3 h | substrate concentration 20%, heat treatment of enzyme no, reaction time 6 h | substrate concentration 20%, heat treatment of enzyme yes, reaction time 6 h | substrate concentration 30%, heat treatment of enzyme no, reaction time 0 h | substrate concentration 30%, heat treatment of enzyme no, reaction time 1 h | substrate concentration 30%, heat treatment of enzyme no, reaction time 3 h | substrate concentration 30%, heat treatment of enzyme no, reaction time 6 h | substrate concentration 30%, heat treatment of enzyme yes, reaction time 6 h
